Reference: patent US20240285571A1, “METHODS OF TREATING BONE INFECTIONS” (MICROBION CORPORATION, priority 2020, published 2024)
In brackets after ≈: the same amount, converted by molar mass. Like-named read-outs stand apart in the source and are kept apart here.

Key:
Assay type in all cases: cell-based
[1] = test system: Klebsiella pneumoniae; test: Broth microdilution MIC (Example 6); conditions: Klebsiella pneumoniae
Protocol: (§1) Test Compounds: The test agents BisEDT (MB-1-B3; Lot No. ED268-1-11-01), MB-2B, and MB-6 were stored at room temperature, in the dark, until assayed.
(§2) For testing daptomycin, calcium was supplemented with […] Ca^2+, resulting in a final concentration of […] Ca^2+ (2, 3).
(§3) MIC Assay Procedure: MIC values were determined using a broth microdilution procedure described by CLSI (2, 3).
(§4) The Biomek 2000 was then used to make 2-fold serial dilutions in the mother plates from column 1 through column 11. The wells of column 12 contained no drug and served as the organism growth control wells for the assay.
(§5) The test panels were prepared on the Biomek FX instrument which transferred 2 μL of drug solution from each well of a mother plate to the corresponding well of each daughter plate in a single step.
(§6) A standardized inoculum of each test organism was prepared per CLSI methods to equal a 0.5 McFarland standard, followed by a dilution of 1:20. The plates were then inoculated with 10 μL of the diluted inoculum using the Biomek 2000 from low to high drug concentration resulting in a final concentration of approximately 5×10^5 CFU/mL.
(§7) Plates were stacked 3-4 high, covered with a lid on the top plate, placed into plastic bags, and incubated at 35° C. for 16 to 20 hr (vancomycin was read for S. aureus after 24 hr incubation time). The MIC was recorded as the lowest concentration of drug that inhibited visible growth of the organism.

[2] = test system: Pseudomonas aeruginosa; test: Broth microdilution MIC (Example 6); conditions: Pseudomonas aeruginosa
Protocol: as §1, §2, §3, §4, §5, §6, §7

[3] = test system: Escherichia coli; test: Broth microdilution MIC (Example 6); conditions: Escherichia coli
Protocol: as §1, §2, §3, §4, §5, §6, §7

[4] = test system: Acinetobacter baumannii; test: Broth microdilution MIC (Example 6); conditions: Acinetobacter baumannii
Outline: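 CLSI broth microdilution in cation-adjusted Mueller Hinton broth, test agents 0.06-64 μg/mL from DMSO stocks, inoculum approx. 5×10^5 CFU/mL. Incubation 35° C for 16–20 hr; MIC taken as lowest concentration inhibiting visible growth.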

[5] = test system: relevant ATCC QC organisms; test: Broth microdilution MIC, QC (Example 6)
Outline: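 QC strains were tested per CLSI broth microdilution in cation-adjusted Mueller Hinton broth, with Ca2+ supplemented for daptomycin, at about 5×10^5 CFU/mL. Incubation was at 35° C for 16–20 hr, or 24 hr for vancomycin against S. aureus. The MIC was the lowest concentration inhibiting visible growth.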

[6] = K. pneumoniae CDC 135, ESBL/VIM, read-out: MIC
[7] = K. pneumoniae MMX 9029, ESBL, read-out: MIC
[8] = P. aeruginosa isolate CDC 230, β-lactamase type VIM/OXA, read-out: MIC
[9] = P. aeruginosa isolate CDC 241, β-lactamase type IMP/OXA, read-out: MIC
[10] = P. aeruginosa isolate CDC 439, β-lactamase type IMP, read-out: MIC
[11] = P. aeruginosa isolate CDC 444, β-lactamase type VIM, read-out: MIC
[12] = P. aeruginosa isolate CDC 457, β-lactamase type VIM, read-out: MIC
[13] = ATCC35218, E. coli ATCC 35218, ESBL, read-out: MIC
[14] = E. coli MMX 5755, ESBL, read-out: MIC
[15] = E. coli MMX 5756, ESBL, read-out: MIC
[16] = E. coli MMX 5758, ESBL, read-out: MIC

C[C@H]1COc2c(N3CCN(C)CC3)c(F)cc3c(=O)c(C(=O)O)cn1c23 [Levofloxacin] gave an MIC ([1]; ATCCBAA1705, K. pneumoniae ATCC BAA-1705, ESBL/KPC, read-out: MIC) greater than 8 µg/mL, an MIC ([1]; K. pneumoniae CDC 112, KPC, read-out: MIC) of 4 µg/mL (≈ 11.1 µM) and an MIC ([1]; K. pneumoniae CDC 113, ESBL/KPC, read-out: MIC) of 4 µg/mL (≈ 11.1 µM). The MIC ([1]; K. pneumoniae CDC 115, ESBL/KPC, read-out: MIC) was greater than 8 µg/mL, the MIC ([1]; K. pneumoniae CDC 120, ESBL/KPC, read-out: MIC) was greater than 8 µg/mL and the MIC ([1]; K. pneumoniae CDC 126, ESBL/KPC, read-out: MIC) was 0.015 µg/mL (≈ 0.0415 µM). It also gave an MIC ([1]; K. pneumoniae CDC 129, ESBL/KPC, read-out: MIC) greater than 8 µg/mL, an MIC [1, 6] greater than 8 µg/mL and an MIC ([1]; K. pneumoniae CDC 138, ESBL/NDM, read-out: MIC) greater than 8 µg/mL. The MIC ([1]; K. pneumoniae CDC 158, ESBL/NDM/OXA, read-out: MIC) was 4 µg/mL (≈ 11.1 µM), the MIC [1, 7] was 0.12 µg/mL (≈ 0.332 µM) and the MIC [2, 8] was 8 µg/mL (≈ 22.1 µM). The MIC ([2]; P. aeruginosa isolate CDC 231, β-lactamase type KPC/OXA, read-out: MIC) was greater than 8 µg/mL, the MIC [2, 9] was 8 µg/mL (≈ 22.1 µM) and the MIC ([2]; P. aeruginosa isolate CDC 246, β-lactamase type NDM/OXA, read-out: MIC) was greater than 8 µg/mL. It also gave an MIC ([2]; P. aeruginosa isolate CDC 250, β-lactamase type NDM/OXA, read-out: MIC) greater than 8 µg/mL, an MIC ([2]; P. aeruginosa isolate CDC 356, β-lactamase type KPC, read-out: MIC) of 0.12 µg/mL (≈ 0.332 µM) and an MIC [2, 10] of 8 µg/mL (≈ 22.1 µM). The MIC [2, 11] was 8 µg/mL (≈ 22.1 µM), the MIC [2, 12] was greater than 8 µg/mL and the MIC ([2]; P. aeruginosa isolate CDC 516, β-lactamase type KPC/AmpC, read-out: MIC) was 0.25 µg/mL (≈ 0.692 µM). The MIC ([2]; P. aeruginosa isolate CDC 518, β-lactamase type KPC/AmpC, read-out: MIC) was greater than 8 µg/mL, the MIC [3, 13] was no more than 0.008 µg/mL and the MIC ([3]; ATCCBAA2471, E. coli ATCC BAA-2471, NDM, read-out: MIC) was greater than 8 µg/mL. The MIC ([3]; E. coli CDC 114, ESBL/KPC, read-out: MIC) was 4 µg/mL (≈ 11.1 µM), the MIC ([3]; E. coli CDC 118, ESBL/NDM, read-out: MIC) was 8 µg/mL (≈ 22.1 µM) and the MIC ([3]; E. coli CDC 435, NDM, read-out: MIC) was greater than 8 µg/mL. For the same compound, the MIC ([3]; E. coli CDC 451, KPC, read-out: MIC) was greater than 8 µg/mL, the MIC ([3]; E. coli CDC 503, ESBL/NDM, read-out: MIC) was greater than 8 µg/mL and the MIC ([3]; E. coli MMX 5745, KPC, read-out: MIC) was 8 µg/mL (≈ 22.1 µM). For the same compound, the MIC [3, 14] was 8 µg/mL (≈ 22.1 µM), the MIC [3, 15] was 4 µg/mL (≈ 11.1 µM) and the MIC [3, 16] was 8 µg/mL (≈ 22.1 µM). It also gave an MIC ([4]; A. baumannii isolate CDC 273, β-lactamase type ESBL/OXA, read-out: MIC) greater than 8 µg/mL, an MIC ([4]; A. baumannii isolate CDC 274, β-lactamase type ESBL/OXA, read-out: MIC) of 8 µg/mL and an MIC ([4]; A. baumannii isolate CDC 275, β-lactamase type ESBL/OXA, read-out: MIC) of 4 µg/mL. It also gave an MIC ([4]; A. baumannii isolate CDC 277, β-lactamase type ESBL/OXA, read-out: MIC) of 8 µg/mL, an MIC ([4]; A. baumannii isolate CDC 284, β-lactamase type ESBL/OXA, read-out: MIC) of 8 µg/mL and an MIC ([4]; A. baumannii isolate CDC 307, β-lactamase type OXA, read-out: MIC) of 8 µg/mL. It also gave an MIC ([4]; A. baumannii isolate CDC 308, β-lactamase type ESBL/OXA, read-out: MIC) of 4 µg/mL, an MIC ([4]; A. baumannii isolate CDC 311, β-lactamase type OXA, read-out: MIC) of 2 µg/mL and an MIC ([4]; A. baumannii isolate CDC 312, β-lactamase type OXA, read-out: MIC) of 2 µg/mL. For the same compound, the MIC ([4]; A. baumannii isolate CDC 313, β-lactamase type ESBL/OXA, read-out: MIC) was 2 µg/mL, the MIC ([4]; NCTC13304, A. baumannii isolate NCTC 13304, β-lactamase type OXA, read-out: MIC) was 1 µg/mL and the MIC ([5]; Escherichia coli, ATCC25922, E. coli ATCC 25922, read-out: MIC) was no more than 0.008 µg/mL. It also gave an MIC ([5]; Escherichia coli, ATCC35218, E. coli ATCC 35218, read-out: MIC) of no more than 0.008 µg/mL, an MIC ([5]; Klebsiella pneumoniae, ATCCBAA1705, K. pneumoniae ATCC BAA-1705, read-out: MIC) greater than 8 µg/mL and an MIC ([5]; Pseudomonas aeruginosa, ATCC27853, P. aeruginosa ATCC 27853, read-out: MIC) of 0.5 µg/mL. It also gave an MIC ([5]; Staphylococcus aureus, ATCC29213, S. aureus ATCC 29213, read-out: MIC) of 0.06 µg/mL.

With OCC(S)CS.[Bi] (centres unmarked) [MB-2B, bismuth-2,3-dimercaptopropanol] the MIC ([1]; ATCCBAA1705, K. pneumoniae ATCC BAA-1705, ESBL/KPC) was 4 µg/mL, the MIC ([1]; K. pneumoniae CDC 112, KPC) was 4 µg/mL and the MIC ([1]; K. pneumoniae CDC 113, ESBL/KPC) was 32 µg/mL. It also gave an MIC ([1]; K. pneumoniae CDC 115, ESBL/KPC) of 16 µg/mL, an MIC ([1]; K. pneumoniae CDC 120, ESBL/KPC) of 4 µg/mL and an MIC ([1]; K. pneumoniae CDC 126, ESBL/KPC) of 32 µg/mL. The MIC ([1]; K. pneumoniae CDC 129, ESBL/KPC) was 4 µg/mL, the MIC [1, 6] was 8 µg/mL and the MIC ([1]; K. pneumoniae CDC 138, ESBL/NDM) was 16 µg/mL. For the same compound, the MIC ([1]; K. pneumoniae CDC 158, ESBL/NDM/OXA) was 4 µg/mL, the MIC [1, 7] was 2 µg/mL and the MIC [2, 8] was 4 µg/mL. The MIC ([2]; P. aeruginosa isolate CDC 231, β-lactamase type KPC/OXA) was 16 µg/mL, the MIC [2, 9] was 32 µg/mL and the MIC ([2]; P. aeruginosa isolate CDC 246, β-lactamase type NDM/OXA) was 8 µg/mL. For the same compound, the MIC ([2]; P. aeruginosa isolate CDC 250, β-lactamase type NDM/OXA) was 8 µg/mL, the MIC ([2]; P. aeruginosa isolate CDC 356, β-lactamase type KPC) was 4 µg/mL and the MIC [2, 10] was 4 µg/mL. For the same compound, the MIC [2, 11] was 4 µg/mL, the MIC [2, 12] was 32 µg/mL and the MIC ([2]; P. aeruginosa isolate CDC 516, β-lactamase type KPC/AmpC) was 4 µg/mL. It also gave an MIC ([2]; P. aeruginosa isolate CDC 518, β-lactamase type KPC/AmpC) of 4 µg/mL, an MIC [3, 13] of 2 µg/mL and an MIC ([3]; ATCCBAA2471, E. coli ATCC BAA-2471, NDM) of 2 µg/mL. It also gave an MIC ([3]; E. coli CDC 114, ESBL/KPC) of 2 µg/mL, an MIC ([3]; E. coli CDC 118, ESBL/NDM) of 4 µg/mL and an MIC ([3]; E. coli CDC 435, NDM) of 2 µg/mL. It also gave an MIC ([3]; E. coli CDC 451, KPC) of 2 µg/mL, an MIC ([3]; E. coli CDC 503, ESBL/NDM) of 2 µg/mL and an MIC ([3]; E. coli MMX 5745, KPC) of 4 µg/mL. For the same compound, the MIC [3, 14] was 4 µg/mL, the MIC [3, 15] was 2 µg/mL and the MIC [3, 16] was 4 µg/mL. It also gave an MIC ([4]; A. baumannii isolate CDC 273, β-lactamase type ESBL/OXA) of 32 µg/mL, an MIC ([4]; A. baumannii isolate CDC 274, β-lactamase type ESBL/OXA) of 32 µg/mL and an MIC ([4]; A. baumannii isolate CDC 275, β-lactamase type ESBL/OXA) of 32 µg/mL. The MIC ([4]; A. baumannii isolate CDC 277, β-lactamase type ESBL/OXA) was greater than 16 µg/mL, the MIC ([4]; A. baumannii isolate CDC 284, β-lactamase type ESBL/OXA) was greater than 16 µg/mL and the MIC ([4]; A. baumannii isolate CDC 307, β-lactamase type OXA) was 32 µg/mL. For the same compound, the MIC ([4]; A. baumannii isolate CDC 308, β-lactamase type ESBL/OXA) was 32 µg/mL, the MIC ([4]; A. baumannii isolate CDC 311, β-lactamase type OXA) was 32 µg/mL and the MIC ([4]; A. baumannii isolate CDC 312, β-lactamase type OXA) was 32 µg/mL. For the same compound, the MIC ([4]; A. baumannii isolate CDC 313, β-lactamase type ESBL/OXA) was 32 µg/mL, the MIC ([4]; NCTC13304, A. baumannii isolate NCTC 13304, β-lactamase type OXA) was greater than 16 µg/mL and the MIC ([5]; Escherichia coli, ATCC25922) was 2 µg/mL. It also gave an MIC ([5]; Escherichia coli, ATCC35218) of 2 µg/mL, an MIC ([5]; Klebsiella pneumoniae, ATCCBAA1705) of 4 µg/mL and an MIC ([5]; Pseudomonas aeruginosa, ATCC27853) of 2 µg/mL. The MIC ([5]; Staphylococcus aureus, ATCC29213) was 1 µg/mL.
